Source: patent US20130040882A1, “USE OF FIBROBLAST GROWTH FACTOR FRAGMENTS” (NOVARTIS AG, priority 2003, published 2013)

Test system: uterine gene expression
Experiment: Gene expression profiling (HGU133A) in the uterus of ovariectomized monkeys treated with estradiol, tamoxifen or raloxifene
Type: in vivo, cynomolgus monkeys (Macaca fascicularis)
Details: uterus; OVX monkeys

SMILES: C#C[C@]1(O)CC[C@H]2[C@@H]3CCc4cc(O)ccc4[C@H]3CC[C@@]21C [EE]
- Fold change relative to OVX: ATPase, H+ transporting, lysosomal 38 kda, V0 subunit d isoform 1: 1.9 fold
- Fold change relative to OVX: ATPase, Na+/K+ transporting, beta 3 polypeptide: 2.2 fold
- Fold change relative to OVX: Biglycan: 1.9 fold
- Fold change relative to OVX: CDC28 protein kinase regulatory subunit 2: 3.8 fold
- Fold change relative to OVX: Cadherin 11, type 2, OB-cadherin (osteoblast): 3.4 fold
- Fold change relative to OVX: Calcium channel, voltage-dependent, beta 2 subunit: 0.6 fold
- Fold change relative to OVX: Catenin (cadherin-associated protein), alpha-like 1: 0.5 fold
- Fold change relative to OVX: Chitinase 3-like 1 (cartilage glycoprotein-39): 3.9 fold
- Fold change relative to OVX: Chloride intracellular channel 4: 1.7 fold
- Fold change relative to OVX: Chondroitin sulfate proteoglycan 2 (versican): 3.6 fold
- Fold change relative to OVX: Collagen, type I, alpha 1: 6.6 fold
- Fold change relative to OVX: Collagen, type IV, alpha 2: 3.3 fold
- Fold change relative to OVX: Collagen, type V, alpha 1: 4.0 fold
- Fold change relative to OVX: Collagen, type VI, alpha 3: 3.7 fold
- Fold change relative to OVX: Collagen, type VIII, alpha 2: 2.1 fold
- Fold change relative to OVX: Cyclin D1 (PRAD1: parathyroid adenomatosis 1): 2.4 fold
- Fold change relative to OVX: Cysteine-rich, angiogenic inducer, 61: 3.5 fold
- Fold change relative to OVX: Cytochrome c oxidase subunit via polypeptide 1: 1.5 fold
- Fold change relative to OVX: Cytochrome c oxidase subunit viia polypeptide 2 (liver): 1.8 fold
- Fold change relative to OVX: Dermatopontin: 1.9 fold
- Fold change relative to OVX: Dishevelled associated activator of morphogenesis 1: 3.1 fold
- Fold change relative to OVX: Fibroblast growth factor 2 (basic): 2.1 fold
- Fold change relative to OVX: Fibulin 1: 1.6 fold
- Fold change relative to OVX: Four and a half LIM domains 2: 3.0 fold
- Fold change relative to OVX: G1 to S phase transition 1: 1.6 fold
- Fold change relative to OVX: Growth associated protein 43: 2.0 fold
- Fold change relative to OVX: H2A histone family, member Y: 1.4 fold
- Fold change relative to OVX: Heparan sulfate proteoglycan 2 (perlecan): 3.5 fold
- Fold change relative to OVX: Histone H2A.F/Z variant: 1.4 fold
- Fold change relative to OVX: Insulin-like growth factor binding protein 2, 36 kda: 7.1 fold
- Fold change relative to OVX: Insulin-like growth factor binding protein 5: 5.2 fold
- Fold change relative to OVX: Integrin, beta 5: 1.7 fold
- Fold change relative to OVX: Intercrine-alpha, mrna sequence: 1.5 fold
- Fold change relative to OVX: LDL receptor adaptor protein: 0.6 fold
- Fold change relative to OVX: LIM and senescent cell antigen-like domains 1: 3.7 fold
- Fold change relative to OVX: Laminin, beta 1: 1.4 fold
- Fold change relative to OVX: Latent transforming growth factor beta binding protein 1: 3.6 fold
- Fold change relative to OVX: Matrix metalloproteinase 19: 6.3 fold
- Fold change relative to OVX: Mitogen-activated protein kinase kinase kinase kinase 4: 0.6 fold
- Fold change relative to OVX: Nidogen (enactin): 3.6 fold
- Fold change relative to OVX: Osteoglycin (osteoinductive factor, mimecan): 2.2 fold
- Fold change relative to OVX: Peroxiredoxin 1: 1.9 fold
- Fold change relative to OVX: Phosphatase and tensin homolog (mutated in multiple advanced cancers 1): 1.8 fold
- Fold change relative to OVX: Phospholipid transfer protein: 2.0 fold
- Fold change relative to OVX: Pituitary tumour-transforming 1 interacting protein: 1.8 fold
- Fold change relative to OVX: Procollagen C-endopeptidase enhancer: 3.2 fold
- Fold change relative to OVX: Procollagen-proline, 2-oxoglutarate 4-dioxygenase (proline 4-hydroxylase), alpha polypeptide II: 2.6 fold
- Fold change relative to OVX: Progesterone receptor: 9.7 fold
- Fold change relative to OVX: Protein tyrosine kinase 9: 2.1 fold
- Fold change relative to OVX: SET domain, bifurcated 1: 3.0 fold
- Fold change relative to OVX: SPARC-like 1 (mast9, hevin): 2.4 fold
- Fold change relative to OVX: Secreted frizzled-related protein 1: 7.1 fold
- Fold change relative to OVX: Secreted frizzled-related protein 4: 4.2 fold
- Fold change relative to OVX: Secreted protein, acidic, cysteine-rich (osteonectin): 2.9 fold
- Fold change relative to OVX: Serine (or cysteine) proteinase inhibitor, clade H (heat shock protein 47), member 1, (collagen binding protein 1): 3.3 fold
- Fold change relative to OVX: Solute carrier family 22 (organic cation transporter), member 1-like: 1.9 fold
- Fold change relative to OVX: Solute carrier family 25 (mitochondrial carrier; adenine nucleotide translocator), member 5: 2.5 fold
- Fold change relative to OVX: Stem cell growth factor; lymphocyte secreted C-type lectin: 2.2 fold
- Fold change relative to OVX: Tenascin C (hexabrachion): 1.2 fold
- Fold change relative to OVX: Testis Enhanced Gene Transcript (Bax Inhibitor 1): 1.8 fold
- Fold change relative to OVX: Thioredoxin interacting protein: 0.3 fold
- Fold change relative to OVX: Transforming growth factor, beta-induced, 68 kda: 1.7 fold
- Fold change relative to OVX: Ubiquinol-cytochrome c reductase, Rieske iron-sulfur polypeptide 1: 1.4 fold
- Fold change relative to OVX: Wingless-type MMTV integration site family, member 2B: 2.6 fold
- Fold change relative to OVX: Wingless-type MMTV integration site family, member 16: 1.1 fold
- Fold change relative to SHAM control: ATPase, H+ transporting, lysosomal 38 kda, V0 subunit d isoform 1: 1.6 fold
- Fold change relative to SHAM control: ATPase, Na+/K+ transporting, beta 3 polypeptide: 1.2 fold
- Fold change relative to SHAM control: Biglycan: 0.7 fold
- Fold change relative to SHAM control: CDC28 protein kinase regulatory subunit 2: 2.3 fold
- Fold change relative to SHAM control: Cadherin 11, type 2, OB-cadherin (osteoblast): 2.1 fold
- Fold change relative to SHAM control: Calcium channel, voltage-dependent, beta 2 subunit: 1.1 fold
- Fold change relative to SHAM control: Catenin (cadherin-associated protein), alpha-like 1: 1.0 fold
- Fold change relative to SHAM control: Chitinase 3-like 1 (cartilage glycoprotein-39): 2.8 fold
- Fold change relative to SHAM control: Chloride intracellular channel 4: 0.9 fold
- Fold change relative to SHAM control: Chondroitin sulfate proteoglycan 2 (versican): 2.6 fold
- Fold change relative to SHAM control: Collagen, type I, alpha 1: 2.4 fold
- Fold change relative to SHAM control: Collagen, type IV, alpha 2: 1.9 fold
- Fold change relative to SHAM control: Collagen, type V, alpha 1: 1.9 fold
- Fold change relative to SHAM control: Collagen, type VI, alpha 3: 2.1 fold
- Fold change relative to SHAM control: Collagen, type VIII, alpha 2: 1.2 fold
- Fold change relative to SHAM control: Cyclin D1 (PRAD1: parathyroid adenomatosis 1): 2.7 fold
- Fold change relative to SHAM control: Cysteine-rich, angiogenic inducer, 61: 2.0 fold
- Fold change relative to SHAM control: Cytochrome c oxidase subunit via polypeptide 1: 1.3 fold
- Fold change relative to SHAM control: Cytochrome c oxidase subunit viia polypeptide 2 (liver): 1.8 fold
- Fold change relative to SHAM control: Dermatopontin: 1.1 fold
- Fold change relative to SHAM control: Dishevelled associated activator of morphogenesis 1: 2.0 fold
- Fold change relative to SHAM control: Fibroblast growth factor 2 (basic): 1.1 fold
- Fold change relative to SHAM control: Fibulin 1: 0.9 fold
- Fold change relative to SHAM control: Four and a half LIM domains 2: 1.9 fold
- Fold change relative to SHAM control: G1 to S phase transition 1: 1.3 fold
- Fold change relative to SHAM control: Growth associated protein 43: 0.8 fold
- Fold change relative to SHAM control: H2A histone family, member Y: 1.2 fold
- Fold change relative to SHAM control: Heparan sulfate proteoglycan 2 (perlecan): 1.6 fold
- Fold change relative to SHAM control: Histone H2A.F/Z variant: 1.4 fold
